Results: BindingDB's records for doi:10.7270/Q2ZC819K (Burnham Center For Chemical Genomics, 2009)

Target: Polyadenylate-binding protein 1 (Homo sapiens, UniProt P11940)
Experiment: blockers of PABP interaction with poly(A) – biochemical, fluorescence polarization, uHTS, primary screen (AID 2014)

Sequence of Polyadenylate-binding protein 1 (P11940 whole entry): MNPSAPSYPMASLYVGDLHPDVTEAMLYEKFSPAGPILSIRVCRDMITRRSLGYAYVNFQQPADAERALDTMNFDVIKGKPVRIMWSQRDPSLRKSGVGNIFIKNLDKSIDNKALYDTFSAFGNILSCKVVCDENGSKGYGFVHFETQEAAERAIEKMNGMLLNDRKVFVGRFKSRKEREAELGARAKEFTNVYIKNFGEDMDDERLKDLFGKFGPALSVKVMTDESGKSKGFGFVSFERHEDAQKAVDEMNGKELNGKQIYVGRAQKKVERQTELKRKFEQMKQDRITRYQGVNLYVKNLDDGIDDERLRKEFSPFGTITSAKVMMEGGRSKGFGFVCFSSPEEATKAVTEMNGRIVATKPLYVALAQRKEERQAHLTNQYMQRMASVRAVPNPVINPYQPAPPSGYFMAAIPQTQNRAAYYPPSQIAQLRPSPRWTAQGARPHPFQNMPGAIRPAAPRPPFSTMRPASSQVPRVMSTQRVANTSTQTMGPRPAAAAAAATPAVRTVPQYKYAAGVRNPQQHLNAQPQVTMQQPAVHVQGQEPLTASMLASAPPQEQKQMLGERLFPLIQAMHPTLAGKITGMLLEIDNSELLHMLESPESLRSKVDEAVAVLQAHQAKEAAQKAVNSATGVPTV

O=C(O)c1ccc(N=NCc2cc3c(cc2[N+](=O)[O-])OCO3)cc1
IC50: 48.8 µM

COc1ccc2c(c1)=C(NNC(=O)Cc1cccs1)C(=O)N=2
IC50: 31 µM

CCn1c(=NC(=O)c2ccc(-n3c(O)ccc3O)cc2)sc2c(OC)ccc(OC)c21 [4-[2,5-bis(oxidanylidene)pyrrolidin-1-yl]-N-(3-ethyl-4,7-dimethoxy-1,3-benzothiazol-2-ylidene)benzamide]
IC50: 100 µM

CC1(C)Oc2ccc3ccc(=O)oc3c2C(CN=O)=C1Cl [9-chloro-2-keto-8,8-dimethyl-pyrano[2,3-f]chromene-10-carbaldehyde oxime]
IC50: 10.3 µM

COc1cc(C)cc(C(=O)O)c1C1C(=O)C(=O)c2c(O)cccc2C1=O (centres undefined) [MLS000877007]
IC50: 5.41 µM

O=C1N=c2ccccc2=C1NNC(=O)c1cc(-c2cccs2)n[nH]1 [N'-(2-oxoindol-3-yl)-5-thiophen-2-yl-1H-pyrazole-3-carbohydrazide]
IC50: 28.8 µM

CC1=NC(=O)NC(c2ccco2)C1C(=O)OC(C)C (centres undefined) [SMR000120838]
IC50: 42.8 µM

COc1ccc(CN=Nc2nc(O)c(CC(=O)O)s2)cc1OCc1ccc(Cl)cc1Cl [[2-({3-[(2,4-dichlorobenzyl)oxy]-4-methoxybenzylidene}hydrazono)-4-oxo-1,3-thiazolidin-5-yl]acetic acid]
IC50: 64.3 µM

CC[N+](C)(CC)CCCC(N=O)C(O)(c1ccccc1)c1ccccc1 (centres undefined) [diethyl-(5-hydroxy-4-hydroxyimino-5,5-diphenylpentyl)-methylammonium;iodide]
IC50: 5.57 µM
